# In publication PMC9237828, “Chemically Tuning Resveratrol for the Effective Killing of Gram-Positive Pathogens” (Journal of Natural Products, 2022):
# Legend:
# [1] = system: panel of aerobic and anaerobic Gram-positive bacteria; assay: organism not typed; format: cell-based
# E. faecium LMG16003 [2] = assay: Combined action with antibiotics (MIC reduction, checkerboard FICI); format: cell-based; details: for FICI, antibiotic with 15 / FICI, antibiotic with 17: fractional inhibitory concentration index, EUCAST, * means relevant FICI values
# S. aureus LMG8224 = assay: as above; format: cell-based, Staphylococcus aureus; details: for MIC of antibiotic in combination with RES: RES at 4 μM; for FICI, antibiotic with 15 / FICI, antibiotic with 17: fractional inhibitory concentration index, EUCAST, * means relevant FICI values
# E. faecalis LMG08222 = assay: microbe, parasite or virus in culture; format: cell-based, Enterococcus faecalis; details: Enterococcus faecalis, LMG08222, 20 h, read-out: Minimal Inhibition Concentration (MIC) E. faecalis LMG08222
# E. faecalis V583 = assay: microbe, parasite or virus in culture; format: cell-based, Enterococcus faecalis; details: Enterococcus faecalis, V583, 20 h, read-out: Minimal Inhibition Concentration (MIC) E. faecalis V583
# C. beijerinckii B504 = assay: MIC test, anaerobes; format: cell-based; details: Clostridium beijerinckii, B504, 24 h; read-out: Minimal Inhibition Concentration (MIC) C. beijerinckii B504
# Experimental: (§1) The resveratrol derivatives were serially diluted in cMHB (BD Difco) in 96-well microplates. Plates were then inoculated with the indicator bacteria at a final concentration of 5 × 10^5 CFU/mL and incubated at 37 °C for 20 h. In the case of the anaerobic bacteria (Clostridium and Clostridioides), the test was performed following the recommendation of CLSI for anaerobes[77] but using RCM medium instead of cMHB. The cultures were cultivated inside an anaerobic chamber at 37 °C for 24 h. All the tests were performed in triplicate.
# C. botulinum CECT551 = assay: microbe, parasite or virus in culture; format: cell-based; details: Clostridium botulinum, CECT551, 24 h, read-out: Minimal Inhibition Concentration (MIC) C. botulinum CECT551
# C. tetani CECT4629 = assay: microbe, parasite or virus in culture; format: cell-based; details: Clostridium tetani, CECT4629, 24 h, read-out: Minimal Inhibition Concentration (MIC) C. tetani CECT4629
# C. ihumii AP5 = assay: MIC test, anaerobes; format: cell-based; details: 24 h; read-out: Minimal Inhibition Concentration (MIC) C. ihumii AP5
# Experimental: as §1
# C. perfringens CECT376 = assay: microbe, parasite or virus in culture; format: cell-based; details: Clostridium perfringens, CECT376, 24 h, read-out: Minimal Inhibition Concentration (MIC) C. perfringens CECT376
# B. cereus ATCC10987 = assay: microbe, parasite or virus in culture; format: cell-based, Bacillus cereus; details: Bacillus cereus, ATCC10987, 20 h, read-out: Minimal Inhibition Concentration (MIC) B. cereus ATCC10987
# E. faecium LMG16003 [3] = assay: microbe, parasite or virus in culture; format: cell-based; details: Enterococcus faecium, LMG16003, 20 h, read-out: Minimal Inhibition Concentration (MIC) E. faecium LMG16003
# S.aureus LMG8224 = assay: microbe, parasite or virus in culture; format: cell-based, Staphylococcus aureus; details: Staphylococcus aureus, LMG8224, 20 h, read-out: Minimal Inhibition Concentration (MIC) S.aureus LMG8224
# C. difficile CECT531 = assay: microbe, parasite or virus in culture; format: cell-based, Clostridioides difficile; details: Clostridioides difficile, CECT531, 24 h, read-out: Minimal Inhibition Concentration (MIC) C. difficile CECT531
Compound,MIC of antibiotic alone (Ab) (E. faecium LMG16003 [2]) [µM],MIC of antibiotic in combination with 15 (S. aureus LMG8224; 15 at 2 μM) [µM],MIC of antibiotic in combination with 15 (S. aureus LMG8224; 15 at 4 μM) [µM],MIC of antibiotic in combination with 17 (S. aureus LMG8224; 17 at 2 μM) [µM],MIC of antibiotic in combination with 17 (S. aureus LMG8224; 17 at 4 μM) [µM],MIC of antibiotic in combination with RES (S. aureus LMG8224) [µM],MIC of antibiotic alone (Ab) (S. aureus LMG8224) [µM],"FICI, antibiotic with 15 (S. aureus LMG8224)","FICI, antibiotic with 17 (S. aureus LMG8224)",further results
Resveratrol-3-glucuronate [compound 8],–,–,–,–,–,–,–,–,–,antibacterial activity against the Gram-positive panel [1]: did not show antibiotic activity
polymyxin B,>32,8 ± 0,1 ± 0,13.3 ± 1.8,6.6 ± 0.9,>32,>32,0.25*,0.45*,"MIC of antibiotic in combination with 15 (E. faecium LMG16003 [2]; 15 at 4 μM): 21.3 ± 3.7 µM; MIC of antibiotic in combination with 15 (E. faecium LMG16003 [2]; 15 at 8 μM): 1.8 ± 0.2 µM; MIC of antibiotic in combination with RES (E. faecium LMG16003 [2]; RES at 8 μM): >32 µM; FICI, antibiotic with 15 (E. faecium LMG16003 [2]): 0.27*"
"[H]/N=C(/N)N[C@H]1[C@H](O)[C@@H](O)[C@H](O[C@@H]2O[C@@H](C)[C@](O)(C=O)[C@H]2O[C@@H]2O[C@@H](CO)[C@H](O)[C@@H](O)[C@@H]2NC)[C@@H](N/C(N)=N\[H])[C@@H]1O [Str, streptomycin]",32 ± 0,–,–,8 ± 0,4 ± 0,16 ± 0,16 ± 0,–,0.75,–
"CC(C)[Si](Oc1ccc(/C=C/c2cc(O[Si](C(C)C)(C(C)C)C(C)C)cc(OS(=O)(=O)O)c2)cc1)(C(C)C)C(C)C [compound 36, 3-Sulfate-4′,5-diisopropylsilyl resveratrol]",–,–,–,–,–,–,–,–,–,MIC (E. faecalis LMG08222): 128 µM; MIC (E. faecalis V583): 128 µM
CC[Si](CC)(CC)Oc1cc(/C=C/c2ccc(O)cc2)cc(O[Si](CC)(CC)CC)c1 [compound 21],–,–,–,–,–,–,–,–,–,antibacterial activity against the Gram-positive panel [1]: not active or displayed very low antibacterial activity
CCCCCCCC(=O)OC[C@H]1O[C@@H](Oc2cc(O)cc(/C=C/c3ccc(O)cc3)c2)[C@H](O)[C@@H](O)[C@@H]1O [compound 3],–,–,–,–,–,–,–,–,–,MIC (C. beijerinckii B504): 32 µM; MIC (C. botulinum CECT551): 32 µM; MIC (C. tetani CECT4629): 21.3 ± 5.3 µM
"NC[C@H]1O[C@H](O[C@H]2[C@H](O)[C@@H](O[C@H]3O[C@H](CO)[C@@H](O)[C@H](N)[C@H]3O)[C@H](N)C[C@@H]2N)[C@H](O)[C@@H](O)[C@@H]1O [Kan, kanamycin]",>32,2 ± 0,0.6 ± 0.1,2 ± 0,1 ± 0,4 ± 0,4 ± 0,0.41,0.75,"MIC of antibiotic in combination with 17 (E. faecium LMG16003 [2]; 17 at 4 μM): 32 ± 0 µM; FICI, antibiotic with 17 (E. faecium LMG16003 [2]): 1*"
"CC(C)(C)[Si](C)(C)Oc1ccc(/C=C/c2cc(OS(=O)(=O)O)cc(OS(=O)(=O)O)c2)cc1 [compound 34, 3,5-Disulfate-4′-tert-butyldimethylsilyl resveratrol]",–,–,–,–,–,–,–,–,–,MIC (C. beijerinckii B504): 32 µM; MIC (C. ihumii AP5): 128 µM; MIC (C. botulinum CECT551): 53.3 ± 10.6 µM; MIC (C. perfringens CECT376): 128 µM; MIC (C. tetani CECT4629): 5.3 ± 1.3 µM
CNC(C)C1CCC(N)C(OC2C(N)CC(N)C(OC3OCC(C)(O)C(NC)C3O)C2O)O1 (centres unmarked) [gentamicin],–,0.5 ± 0,0.1 ± 0,0.3 ± 0,0.1 ± 0,1 ± 0,1 ± 0,0.37,0.58,"MIC (B. cereus ATCC10987): 4 µM; MIC (E. faecalis V583): > 32 µM; MIC (E. faecium LMG16003 [3]): 12.6 ± 1.61 µM; MIC (S.aureus LMG8224): 1 ± 0.35 µM; MIC (C. difficile CECT531): > 32 µM; MIC (C. perfringens CECT376): > 32 µM; MIC of antibiotic in combination with 15 (E. faecium LMG16003 [2]; 15 at 4 μM): 13.3 ± 1.8 µM; MIC of antibiotic in combination with 15 (E. faecium LMG16003 [2]; 15 at 8 μM): 5.3 ± 0.9 µM; MIC of antibiotic in combination with 17 (E. faecium LMG16003 [2]; 17 at 2 μM): 13.3 ± 1.8 µM; MIC of antibiotic in combination with 17 (E. faecium LMG16003 [2]; 17 at 4 μM): 6.6 ± 0.9 µM; FICI, antibiotic with 15 (E. faecium LMG16003 [2]): 0.41; FICI, antibiotic with 17 (E. faecium LMG16003 [2]): 0.66"
